Data published in article PMC11784145, “Efficacy and in vitro pharmacological assessment of novel N-hydroxypyridinediones as hepatitis B virus ribonuclease H inhibitors” (Antimicrobial Agents and Chemotherapy, 2024).

Key:
[1] = test system: HBV replication (HBV plus-polarity DNA strand); experiment: HBV replication inhibition, strand preferential qPCR in hepDES19 cells; type: cell-based, hepatitis B virus; details: for EC50: 72 h exposure, HBV plus-polarity strand suppression, highest concentration tested 100 µM, mean ± SD, read-out: HepDES19 EC50
Experimental: HBV replication inhibition was measured in hepDES19 cells following 72 h compound exposure without compound replenishment. EC50 values were determined by HBV plus-polarity strand suppression using a strand preferential qPCR assay, as described previously ([28]). Three or more replicate values were obtained on different days.

[2] = Solubility limit, turbidimetric assay; type: physicochemical; details: upper limit 200 µM
Experimental: Solubility limits were determined by a turbidimetric assay, as described ([27]), with the solubility limit being defined as the compound concentration where light scattering began to rise. Two or more replicate assays were performed for each compound at each pH on different days.

[3] = Parallel artificial membrane permeability assay (PAMPA); type: in vitro ADME
Experimental: Compound Papp values were determined by normalizing the experimental compound absorbance to the compounds’ absorbances at equilibrium, membrane porosity, buffer volume, and time (s). Two or more replicate assays were obtained on separate days for each pH.

[4] = Microsome stability; type: in vitro ADME, human; details: human, microsomes
Experimental: Human liver microsomes (gender pooled, 50 individuals) were purchased from BioIVT and stored at −80°C until use. […] Reactions were initiated by addition of 1.2 mM NADPH. […] Microsomal proteins were pelleted at 4,000 × g and the supernatant was analyzed via LCMS/MS. […] The ln percent remaining values were plotted against time, the negative slope was taken (k), and compound half-life (t1/2) was determined using ln2/k. Intrinsic clearance (Clint [µL/min/mg]) was calculated by (V × ln2)/t1/2, where V is the incubation volume (µL) divided by the protein concentration in the reaction (mg) ([31]).

[5] = test system: HepDES19 cells; details: read-out: HepDES19 CC50; 72 h, MTS; highest concentration tested 100 µM; mean ± SD
Experimental: HepDES19 cells were plated on 96-well tissue culture-treated plates (Greiner) at 1.0 × 10^4 cells per well and incubated for 48 h. Cells were treated with titrated concentrations of compound or 1% DMSO vehicle for 72 h, and cellular viability was measured by 3-(4,5-dimethylthiazol-2-yl)−5-(3-carboxymethoxyphenyl)−2-(4-sulfophenyl)−2H-tetrazolium (MTS) assays, as described previously ([20]). […] Three or more replicate assays were done on different days.

[6] = molecular target: T1, human ribonuclease H1 (huRNase H1) (Homo sapiens, UniProt O60930); experiment: Human RNase H1 inhibition, fluorescent biochemical assay; details: for IC50: recombinant huRNase H1, RNA:DNA heteroduplex substrate
T1 construct: made in house; host or cells: Escherichia coli
T1 sequence (O60930 1-286): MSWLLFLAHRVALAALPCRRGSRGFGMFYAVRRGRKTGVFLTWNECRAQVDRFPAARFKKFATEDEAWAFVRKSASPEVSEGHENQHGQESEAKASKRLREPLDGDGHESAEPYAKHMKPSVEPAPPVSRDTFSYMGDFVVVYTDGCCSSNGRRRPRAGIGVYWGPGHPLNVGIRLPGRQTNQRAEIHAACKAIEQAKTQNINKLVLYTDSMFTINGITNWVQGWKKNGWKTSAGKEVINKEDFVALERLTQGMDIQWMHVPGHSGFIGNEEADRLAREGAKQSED
Experimental: Recombinant human ribonuclease H1 (huRNase H1) was expressed in Escherichia coli and purified by nickel affinity chromatography, as described previously ([30]). […] The heteroduplex substrate was prepared, as described by Ponzar et al. ([30]). Reactions were initiated by the addition of MgCl2 (5 mM final) and were performed on a Biotek Synergy HTX multi-mode plate reader at 28°C.
Maximum rates of fluorescence increase were calculated using the Biotek Gen5 v3.15 software and percentage activity was determined for each compound concentration by subtracting rates from no enzyme reactions and normalizing to DMSO reactions. […] Reactions were performed at least three times on separate days.

[7] = pH 5 (fed simulated intestinal fluid)
[8] = pH 6.5 (fasted simulated intestinal fluid)

SMILES | HepDES19 SI (CC50/EC50) [1] | EC50 [1] [nM] | Average Sol (solubility limit) [2, 7] [µM] | Sol 1 (solubility limit) ([2]; pH 5, replicate 1) [µM] | Sol 2 (solubility limit) ([2]; pH 5, replicate 2) [µM] | Average Sol (solubility limit) [2, 8] [µM] | Sol 1 (solubility limit) ([2]; pH 6.5, replicate 1) [µM] | Sol 2 (solubility limit) ([2]; pH 6.5, replicate 2) [µM] | Average Sol (solubility limit) ([2]; pH 7.4 (DMEM-F12 with 10% FBS)) [µM] | Sol 1 (solubility limit) ([2]; pH 7.4, replicate 1) [µM] | Sol 2 (solubility limit) ([2]; pH 7.4, replicate 2) [µM] | Avg Papp (PAMPA) ([3]; FeSSIF pH 5) [×10⁻⁶ cm/s] | Interpretation (PAMPA Papp) ([3]; FeSSIF pH 5) | Papp 1 (PAMPA) ([3]; FeSSIF pH 5, replicate 1) [×10⁻⁶ cm/s] | Papp 2 (PAMPA) ([3]; FeSSIF pH 5, replicate 2) [×10⁻⁶ cm/s] | Avg Papp (PAMPA) ([3]; pH 7.4) [×10⁻⁶ cm/s] | Interpretation (PAMPA Papp) ([3]; pH 7.4) | Papp 1 (PAMPA) ([3]; pH 7.4, replicate 1) [×10⁻⁶ cm/s] | Papp 2 (PAMPA) ([3]; pH 7.4, replicate 2) [×10⁻⁶ cm/s] | CC50 [5] [nM] | also measured
CC(=NOCc1ccc(C(F)(F)F)cc1)c1c(C)cc(=O)n(O)c1O [Compound 1235] | 26.3 | 1870 ± 351 | > 200 | > 200 | > 200 | 167 | 100 | > 200 | > 200 | > 200 | > 200 | 18 | H (H: Papp > 1*10-6) | 22.7 | 13.2 | 3.34 | H (H: Papp > 1*10-6) | 2.29 | 4.4 | 49200 ± 19200 | Sol 3 (solubility limit) ([2]; pH 6.5, replicate 3): > 200 µM; Clearance (intrinsic clearance, Clint) [4]: 5.48 µL/min/mg; Half-life [4]: >30 min
CC(=NOCc1ccc(Cl)cc1)c1c(C)cc(=O)n(O)c1O [Compound 1466] | 130 | 359 ± 240 | > 200 | > 200 | > 200 | > 200 | > 200 | > 200 | > 200 | > 200 | > 200 | 20.4 | H (H: Papp > 1*10-6) | 23.2 | 17.6 | 1.69 | H (H: Papp > 1*10-6) | 0.299 | 2.48 | 46600 ± 13600 | Papp 3 (PAMPA) ([3]; pH 7.4, replicate 3): 2.29 ×10⁻⁶ cm/s; Selectivity of HBV replication inhibition over huRNase H1 (huRNase H1 IC50 versus HBV EC50) [6]: at least 10 fold; Half-life [4]: >30 min
CC(=NOCc1ccc(OCc2ccccc2)cc1)c1c(C)cc(=O)n(O)c1O [Compound 1738] | 6.53 | 7490 ± 1730 | > 200 | > 200 | > 200 | > 200 | > 200 | > 200 | 167 | > 200 | 100 | 25.9 | H (H: Papp > 1*10-6) | 19.9 | 42.6 | 5.42 | H (H: Papp > 1*10-6) | 1.34 | 9.64 | 51400 ± 19200 | Sol 3 (solubility limit) ([2]; pH 7.4, replicate 3): > 200 µM; Papp 3 (PAMPA) ([3]; FeSSIF pH 5, replicate 3): 3.74 ×10⁻⁶ cm/s; Papp 4 (PAMPA) ([3]; FeSSIF pH 5, replicate 4): 37.3 ×10⁻⁶ cm/s; Papp 3 (PAMPA) ([3]; pH 7.4, replicate 3): 9.47 ×10⁻⁶ cm/s; Papp 4 (PAMPA) ([3]; pH 7.4, replicate 4): 1.23 ×10⁻⁶ cm/s; IC50 [6]: 560 nM
CC(=NOCc1cc(F)ccc1F)c1c(C)cc(=O)n(O)c1O [Compound 1810] | 54.0 | 1850 ± 758 | 167 | 100 | > 200 | 100 | 100 | 100 | 167 | > 200 | 100 | 20.7 | H (H: Papp > 1*10-6) | 17.2 | 24.2 | 3.23 | H (H: Papp > 1*10-6) | 1.13 | 2.26 | > 100000 | Sol 3 (solubility limit) ([2]; pH 5, replicate 3): > 200 µM; Sol 3 (solubility limit) ([2]; pH 7.4, replicate 3): > 200 µM; Papp 3 (PAMPA) ([3]; pH 7.4, replicate 3): 7.59 ×10⁻⁶ cm/s; Papp 4 (PAMPA) ([3]; pH 7.4, replicate 4): 1.29 ×10⁻⁶ cm/s; Papp 5 (PAMPA) ([3]; pH 7.4, replicate 5): 3.89 ×10⁻⁶ cm/s; IC50 [6]: 820 nM
